Results published in the NIST ThermoML archive (doi:10.1021/je200145r).

Assay: wn = mass fraction of the nth substance listed
Settings: 101 kPa, Liquid; for viscosity: Capillary tube (Ostwald / Ubbelohde) method

C1COCCO1 [1,4-dioxane] + CO
Settings	mass density, 298.15 K [kg/m3]	mass density, 303.15 K [kg/m3]	mass density, 308.15 K [kg/m3]	mass density, 313.15 K [kg/m3]	viscosity, 298.15 K [mPa·s]	viscosity, 303.15 K [mPa·s]	viscosity, 308.15 K [mPa·s]	viscosity, 313.15 K [mPa·s]
w1 = 0.1	811.2	806.4	801.7	796.9	0.55	0.511	0.473	0.432
w1 = 0.2	834.4	828.8	823.4	818.4	0.554	0.517	0.482	0.448
w1 = 0.3	852.5	847.4	842.6	838	0.565	0.527	0.489	0.452
w1 = 0.4	875.1	870.2	865.5	860.6	0.587	0.548	0.508	0.467
